Where two headings read alike, the source gives them in different places.
Tests used:
B-Raf [1] = experiment: B-Raf kinase activity biochemical assay (AlphaScreen, biotin-MEK1 phosphorylation); conditions: for Biochemical activity ratio B/V600E: ratio of IC50 B-Raf / B-Raf V600E; for Biochemical activity ratio B/C: ratio of IC50 B-Raf / c-Raf-1
Method in brief: (§1)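 Compounds from a 0.1 mM DMSO stock were tested at 8 serially diluted points. Kinase reactions with 100 μM ATP (final) ran 45 min at room temperature, then were stopped with EDTA buffer containing anti-phospho-MEK1/2 antibody plus streptavidin donor and protein A acceptor beads.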

B-Raf [2] = target: B-Raf (Homo sapiens (Human), UniProt P15056); experiment: as above; conditions: B-Raf
Sequence of B-Raf (Homo sapiens (Human), UniProt P15056) (P15056 whole entry): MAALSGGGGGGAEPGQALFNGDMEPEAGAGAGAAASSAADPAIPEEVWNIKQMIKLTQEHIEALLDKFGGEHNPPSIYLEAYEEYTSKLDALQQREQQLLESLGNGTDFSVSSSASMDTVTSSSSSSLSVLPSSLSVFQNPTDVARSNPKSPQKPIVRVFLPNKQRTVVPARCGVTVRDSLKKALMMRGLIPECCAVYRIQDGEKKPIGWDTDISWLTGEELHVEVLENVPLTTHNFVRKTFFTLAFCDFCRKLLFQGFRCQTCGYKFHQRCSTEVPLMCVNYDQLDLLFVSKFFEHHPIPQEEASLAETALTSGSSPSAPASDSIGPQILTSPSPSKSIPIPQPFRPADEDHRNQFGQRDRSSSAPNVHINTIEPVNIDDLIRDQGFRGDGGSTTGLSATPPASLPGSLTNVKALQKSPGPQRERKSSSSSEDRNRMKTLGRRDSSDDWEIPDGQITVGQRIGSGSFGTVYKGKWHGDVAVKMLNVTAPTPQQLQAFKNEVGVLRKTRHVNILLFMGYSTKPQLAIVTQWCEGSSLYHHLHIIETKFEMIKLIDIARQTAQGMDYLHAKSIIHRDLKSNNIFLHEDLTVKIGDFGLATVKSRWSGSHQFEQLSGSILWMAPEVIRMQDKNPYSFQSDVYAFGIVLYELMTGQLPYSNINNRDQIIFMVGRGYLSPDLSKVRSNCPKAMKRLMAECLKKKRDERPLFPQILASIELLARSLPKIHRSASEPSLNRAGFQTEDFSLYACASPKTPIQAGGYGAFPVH
Method in brief: as §1

CYP2C9 = CYP2C9 (Homo sapiens (Human), UniProt P11712); experiment: CYP enzyme inhibition, fluorescent substrate (MFC)
Sequence of CYP2C9 (P11712 whole entry): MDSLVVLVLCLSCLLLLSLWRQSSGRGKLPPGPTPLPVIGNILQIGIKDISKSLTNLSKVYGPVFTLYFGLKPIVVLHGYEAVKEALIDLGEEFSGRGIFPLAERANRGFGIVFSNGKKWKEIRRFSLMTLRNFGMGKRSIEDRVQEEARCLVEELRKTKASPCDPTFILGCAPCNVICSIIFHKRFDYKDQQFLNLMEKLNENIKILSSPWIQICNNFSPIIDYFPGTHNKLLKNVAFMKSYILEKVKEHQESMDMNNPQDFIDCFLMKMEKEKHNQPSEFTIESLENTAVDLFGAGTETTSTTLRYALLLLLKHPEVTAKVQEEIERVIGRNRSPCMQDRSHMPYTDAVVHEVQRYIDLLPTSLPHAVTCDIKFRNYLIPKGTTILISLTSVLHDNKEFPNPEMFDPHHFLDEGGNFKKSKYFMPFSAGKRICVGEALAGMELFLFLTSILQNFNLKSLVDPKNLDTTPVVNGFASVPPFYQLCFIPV
Protocol: (§2) CYP (Cytochrome P450) enzymes are the major drug metabolizing enzymes present in the liver. The inhibition of CYP enzyme activity (IC50) for each of CYP1A2, CYP2C19, CYP2C9, CYP2D6, CYP3A4(BFC) and CYP3A4(BQ) is determined for compounds, where inhibition of metabolism of a known substrate leads to a decrease in the fluorescence of the metabolized product. The fluorescence of the product is monitored as a function of compound concentration.
(§3) Compounds are dissolved in dimethyl sulfoxide to a concentration of 100 mM. These are diluted 1 μL into 82 μL of acetonitrile. […] These are then serially diluted 1:1 (160 μL to 160 μL co-factor mix) for a total of 10 points. A 10 μL aliquot of this final mixture is dispensed into 384 well assay plates and incubated for 10 minutes at 37° C. […] Assay plates are incubated at 37° C. […] The signal versus compound concentration is used to determine the IC50. The enzymes and substrates for this assay are obtained from BD Biosciences.

CYP2D6 = CYP2D6 (Homo sapiens (Human), UniProt P10635); experiment: CYP enzyme inhibition, fluorescent substrate (AMMC); format: in vitro ADME; conditions: read-out: Cyp IC50 2D6
Sequence of CYP2D6 (P10635 whole entry): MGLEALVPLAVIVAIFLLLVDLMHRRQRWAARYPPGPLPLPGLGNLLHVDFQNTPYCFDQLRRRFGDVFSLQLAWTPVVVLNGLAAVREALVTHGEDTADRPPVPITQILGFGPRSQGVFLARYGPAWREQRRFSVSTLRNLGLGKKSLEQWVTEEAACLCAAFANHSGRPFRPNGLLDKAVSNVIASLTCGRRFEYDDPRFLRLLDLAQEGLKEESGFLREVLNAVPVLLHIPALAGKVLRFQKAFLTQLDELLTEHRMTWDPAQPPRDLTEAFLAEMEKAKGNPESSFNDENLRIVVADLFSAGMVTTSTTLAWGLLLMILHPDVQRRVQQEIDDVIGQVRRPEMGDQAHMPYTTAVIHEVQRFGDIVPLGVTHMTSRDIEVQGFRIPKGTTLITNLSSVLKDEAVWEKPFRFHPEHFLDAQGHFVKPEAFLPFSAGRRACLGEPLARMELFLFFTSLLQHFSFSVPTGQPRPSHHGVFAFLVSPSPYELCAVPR
Protocol: as §2
(§4) Compounds are dissolved in dimethyl sulfoxide to a concentration of 100 mM. These are diluted 1 μL into 82 μL of acetonitrile. An 11 μL aliquot of this solution is then added to 204 μL of cofactor mix (1.3% NADPH Regeneration system Solution A, 1.04% NADPH Regeneration system Solution B from BD Biosciences, 5% acetonitrile and 0.05% dimethyl sulfoxide). These are then serially diluted 1:1 (160 μL to 160 μL co-factor mix) for a total of 10 points. A 10 μL aliquot of this final mixture is dispensed into 384 well assay plates and incubated for 10 minutes at 37° C. Enzyme and substrate mix (10 μL; 0.5 pmol CYP1A2/5 μM CEC; 1.0 pmol CYP2C9/75 μM MFC; 0.5 pmol CYP2C19/25 μM CEC; 1.5 pmol CYP2D6/1.5 μM AMMC; 1.0 pmol CYP3A4/50 μM BFC; or 1.0 pmol CYP3A4/40 μM BQ) is added to these assay plates. Assay plates are incubated at 37° C. (CYP1A2-15 min; CYP2C9-45 min; CYP2C19, 2D6 and 3A4-30 min) and read in a Tecan Safire 2 plate reader (CYP1A2, 2C19 and 3A4 409 ex/460 em; CYP2C9 and 2D6 409 ex/530 em). The signal versus compound concentration is used to determine the IC50. The enzymes and substrates for this assay are obtained from BD Biosciences.

[3] = Relative solubility by turbidity threshold concentration in aqueous buffers (pH 1.5, 4.5, 6.8, 7.4); format: physicochemical; conditions: for turbidity threshold (L, M, H) 1.4: pH 1.4 [sic] (method: SGF pH 1.5); for turbidity threshold (L, M, H) 4.5: pH 4.5 (SIF); for turbidity threshold (L, M, H) 6.8: pH 6.8 (SIF); for turbidity threshold (L, M, H) 7.4: pH 7.4 (HEPES)
Method in brief: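 Solubility class (high >250 μM, moderate 31.3–250 μM, low <31.3 μM) comes from the concentration where absorbance reaches a 0.01 threshold, averaged across 490/535/650 nm. Samples were compound dilutions from DMSO stock, 1 μL into 99 μL buffer at pH 1.5, 4.5, 6.8 or 7.4.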

c-Raf-1 = c-Raf-1 (Homo sapiens, UniProt P04049); experiment: c-Raf-1 kinase activity biochemical assay (AlphaScreen, biotin-MEK1 phosphorylation)
Sequence of c-Raf-1 (P04049 whole entry, looked up): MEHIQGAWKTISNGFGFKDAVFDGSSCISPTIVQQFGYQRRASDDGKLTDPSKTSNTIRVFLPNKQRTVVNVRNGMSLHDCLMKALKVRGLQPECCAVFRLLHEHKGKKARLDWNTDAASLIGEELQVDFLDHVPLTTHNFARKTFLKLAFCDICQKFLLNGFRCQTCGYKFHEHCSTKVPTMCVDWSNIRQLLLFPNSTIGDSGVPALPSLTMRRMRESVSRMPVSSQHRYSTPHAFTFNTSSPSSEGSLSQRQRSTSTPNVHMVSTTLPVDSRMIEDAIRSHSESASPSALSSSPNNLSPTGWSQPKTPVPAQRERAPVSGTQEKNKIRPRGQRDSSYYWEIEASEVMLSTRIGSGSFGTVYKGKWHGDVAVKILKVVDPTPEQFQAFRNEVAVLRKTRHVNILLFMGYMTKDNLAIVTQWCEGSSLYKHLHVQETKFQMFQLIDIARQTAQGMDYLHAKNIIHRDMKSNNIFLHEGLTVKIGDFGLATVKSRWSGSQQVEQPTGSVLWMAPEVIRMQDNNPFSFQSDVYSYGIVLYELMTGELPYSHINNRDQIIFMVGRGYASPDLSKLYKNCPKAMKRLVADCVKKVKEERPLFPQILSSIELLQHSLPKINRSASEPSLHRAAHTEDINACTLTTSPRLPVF
Method in brief: as §1

CYP2C19 = CYP2C19 (Homo sapiens (Human), UniProt P33261); experiment: CYP enzyme inhibition, fluorescent substrate (CEC)
Sequence of CYP2C19 (P33261 whole entry): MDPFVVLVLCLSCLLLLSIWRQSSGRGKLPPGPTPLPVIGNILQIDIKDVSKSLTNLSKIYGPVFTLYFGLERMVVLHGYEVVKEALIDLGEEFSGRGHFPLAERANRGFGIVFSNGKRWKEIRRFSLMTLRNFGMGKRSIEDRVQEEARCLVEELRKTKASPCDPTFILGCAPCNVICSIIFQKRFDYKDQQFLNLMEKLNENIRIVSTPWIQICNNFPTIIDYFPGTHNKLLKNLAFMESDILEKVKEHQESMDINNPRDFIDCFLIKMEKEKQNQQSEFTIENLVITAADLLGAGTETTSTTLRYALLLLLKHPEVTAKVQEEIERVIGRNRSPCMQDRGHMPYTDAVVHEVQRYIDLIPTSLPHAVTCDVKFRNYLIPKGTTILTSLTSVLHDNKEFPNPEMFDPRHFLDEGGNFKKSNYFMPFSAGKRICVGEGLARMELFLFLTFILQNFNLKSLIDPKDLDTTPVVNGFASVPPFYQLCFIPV
Method in brief: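 10-pt 1:1 serial dilution in co-factor mix (DMSO stock 100 mM); 10 min preincubation, 37 °C; reaction at 37 °C. Readout: fluorescent metabolite of probe substrate. IC50 from signal vs [compound].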

CYP1A2 = CYP1A2 (Homo sapiens (Human), UniProt P05177); experiment: CYP enzyme inhibition, fluorescent substrate (CEC)
Sequence of CYP1A2 (P05177 whole entry): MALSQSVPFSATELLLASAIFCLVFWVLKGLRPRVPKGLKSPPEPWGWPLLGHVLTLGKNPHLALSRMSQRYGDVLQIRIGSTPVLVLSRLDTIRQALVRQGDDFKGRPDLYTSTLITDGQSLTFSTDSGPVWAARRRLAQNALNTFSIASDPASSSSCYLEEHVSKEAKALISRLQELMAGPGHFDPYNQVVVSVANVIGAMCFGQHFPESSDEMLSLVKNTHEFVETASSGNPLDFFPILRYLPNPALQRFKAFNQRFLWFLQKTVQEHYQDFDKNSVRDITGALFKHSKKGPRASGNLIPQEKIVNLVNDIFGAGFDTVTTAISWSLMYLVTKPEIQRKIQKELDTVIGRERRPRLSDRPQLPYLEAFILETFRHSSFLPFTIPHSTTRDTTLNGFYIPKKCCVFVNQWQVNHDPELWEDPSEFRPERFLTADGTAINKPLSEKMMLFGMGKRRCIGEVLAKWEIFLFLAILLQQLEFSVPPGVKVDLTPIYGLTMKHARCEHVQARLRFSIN
Protocol: as §2, §4

B-Raf V600E = B-Raf V600E (Homo sapiens (Human), UniProt P15056, V600E); experiment: B-Raf V600E kinase activity biochemical assay (AlphaScreen, biotin-MEK1 phosphorylation); conditions: for IC50: B-Raf V600E; for Biochemical activity ratio V600E/C: ratio of IC50 B-Raf V600E / c-Raf-1
Sequence of B-Raf V600E (P15056 whole entry V600E): as the sequence (P15056 whole entry) above, with V600E counted along it
Method in brief: as §1

CYP3A4(BFC) = CYP3A4(BFC) (Homo sapiens (Human), UniProt P08684); experiment: CYP enzyme inhibition, fluorescent substrate BFC
Sequence of CYP3A4(BFC) (P08684 whole entry): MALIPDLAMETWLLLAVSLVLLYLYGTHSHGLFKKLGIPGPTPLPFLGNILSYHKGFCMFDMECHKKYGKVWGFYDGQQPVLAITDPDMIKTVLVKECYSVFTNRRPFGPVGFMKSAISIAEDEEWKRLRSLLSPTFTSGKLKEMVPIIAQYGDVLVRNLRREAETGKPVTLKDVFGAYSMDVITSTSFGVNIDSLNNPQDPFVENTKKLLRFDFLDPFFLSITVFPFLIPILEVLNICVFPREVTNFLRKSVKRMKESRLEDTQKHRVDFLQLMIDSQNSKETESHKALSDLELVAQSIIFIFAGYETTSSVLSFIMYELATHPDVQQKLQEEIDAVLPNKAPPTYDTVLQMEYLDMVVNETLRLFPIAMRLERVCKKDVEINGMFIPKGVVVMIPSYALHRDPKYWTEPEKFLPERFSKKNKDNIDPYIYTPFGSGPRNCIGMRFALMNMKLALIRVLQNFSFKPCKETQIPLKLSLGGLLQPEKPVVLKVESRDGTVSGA
Protocol: as §2, §3

[4] = read-out: Cyp IC50 2C9, CYP2C9, substrate MFC
[5] = read-out: Cyp IC50 2C19, CYP2C19, substrate CEC
[6] = read-out: Cyp IC50 3A4(BFC), CYP3A4, substrate BFC
[7] = read-out: Cyp IC50 1A2, CYP1A2, substrate CEC

| SMILES | Biochemical activity ratio B/V600E (B-Raf [1]) | Biochemical activity ratio B/C (B-Raf [1]) | IC50 (B-Raf [2]) [µM] | IC50 (CYP2C9; [4]) [µM] | IC50 (CYP2D6) [µM] | turbidity threshold (L, M, H) 1.4 [3] | turbidity threshold (L, M, H) 4.5 [3] | turbidity threshold (L, M, H) 6.8 [3] | turbidity threshold (L, M, H) 7.4 [3] | IC50 (c-Raf-1) [µM] | IC50 (CYP2C19) [µM] | IC50 (CYP1A2; human, 15 min) [µM] | IC50 (B-Raf V600E) [µM] | Biochemical activity ratio V600E/C (B-Raf V600E) | IC50 (CYP3A4(BFC)) [µM] | IC50 (CYP2C9) [µM] | IC50 (CYP2C19; [5]) [µM] | IC50 (CYP3A4(BFC); [6]) [µM] | IC50 (CYP1A2; [7]) [µM] |
| --- | --- | --- | --- | --- | --- | --- | --- | --- | --- | --- | --- | --- | --- | --- | --- | --- | --- | --- | --- |
| O=C(c1c(F)ccc(NS(=O)(=O)c2ccc(C(F)(F)F)cc2)c1F)c1c[nH]c2ncnc(NC3CCCC3)c12 [P-1035, N-[3-(4-Cyclopentylamino-7H-pyrrolo[2,3-d]pyrimidine-5-carbonyl)-2,4-difluoro-phenyl]-4-trifluoromethyl-benzenesulfonamide] | 0.1-10 | >10 | < 0.1 | > 10 | > 10 | L (low solubility if the threshold concentration is <31.3 μM) | L (low solubility if the threshold concentration is <31.3 μM) | L (low solubility if the threshold concentration is <31.3 μM) | L (low solubility if the threshold concentration is <31.3 μM) | < 0.1 | 5 to 10 | > 10 | < 0.1 | >10 | 5 to 10 | – | – | – | – |
| CC(C)COc1ncnc2[nH]cc(C(=O)c3c(F)ccc(NS(=O)(=O)c4ccc(C(F)(F)F)cc4)c3F)c12 [P-1028, N-[2,4-Difluoro-3-(4-isobutoxy-7H-pyrrolo[2,3-d]pyrimidine-5-carbonyl)-phenyl]-4-trifluoromethyl-benzenesulfonamide] | 0.1-10 | >10 | > 0.1 | – | > 10 | M (moderate solubility if the threshold concentration is 31.3 μM to 250 μM) | L (low solubility if the threshold concentration is <31.3 μM) | L (low solubility if the threshold concentration is <31.3 μM) | M (moderate solubility if the threshold concentration is 31.3 μM to 250 μM) | < 0.1 | – | > 10 | > 0.1 | >10 | – | 5 to 10 | > 10 | > 10 | – |
| CCCc1ccc(S(=O)(=O)Nc2ccc(F)c(C(=O)c3c[nH]c4ncnc(O)c34)c2F)cc1 [P-1030, N-[2,4-Difluoro-3-(4-hydroxy-7H-pyrrolo[2,3-d]pyrimidine-5-carbonyl)-phenyl]-4-propyl-benzenesulfonamide] | <0.1 | 0.1-10 | > 0.1 | > 10 | > 10 | – | M (moderate solubility if the threshold concentration is 31.3 μM to 250 μM) | – | M (moderate solubility if the threshold concentration is 31.3 μM to 250 μM) | < 0.1 | – | – | > 0.1 | >10 | – | – | > 10 | > 10 | > 10 |
| Cc1cc(C)cc(S(=O)(=O)Nc2ccc(F)c(C(=O)c3c[nH]c4ncnc(C)c34)c2F)c1 [P-1027, N-[2,4-Difluoro-3-(4-methyl-7H-pyrrolo[2,3-d]pyrimidine-5-carbonyl)-phenyl]-3,5-dimethyl-benzenesulfonamide] | 0.1-10 | >10 | > 0.1 | > 10 | > 10 | – | L (low solubility if the threshold concentration is <31.3 μM) | M (moderate solubility if the threshold concentration is 31.3 μM to 250 μM) | – | < 0.1 | – | > 10 | > 0.1 | 0.1-10 | – | – | > 10 | > 10 | – |
| CC(C)CNc1ncnc2[nH]cc(C(=O)c3c(F)ccc(NS(=O)(=O)c4ccc(C(F)(F)F)cc4)c3F)c12 [P-1020, N-[2,4-Difluoro-3-(4-isobutylamino-7H-pyrrolo[2,3-d]pyrimidine-5-carbonyl)-phenyl]-4-trifluoromethyl-benzenesulfonamide] | 0.1-10 | >10 | < 0.1 | > 10 | > 10 | H (high solubility if the threshold concentration is >250 μm) | – | – | H (high solubility if the threshold concentration is >250 μm) | < 0.1 | – | > 10 | > 0.1 | >10 | – | – | > 10 | > 10 | – |
| Nc1ncnc2[nH]cc(C(=O)c3c(F)ccc(NS(=O)(=O)c4ccc(C(F)(F)F)cc4)c3F)c12 [P-1031, N-[3-(4-Amino-7H-pyrrolo[2,3-d]pyrimidine-5-carbonyl)-2,4-difluoro-phenyl]-4-trifluoromethyl-benzenesulfonamide] | 0.1-10 | >10 | > 0.1 | > 10 | > 10 | M (moderate solubility if the threshold concentration is 31.3 μM to 250 μM) | M (moderate solubility if the threshold concentration is 31.3 μM to 250 μM) | M (moderate solubility if the threshold concentration is 31.3 μM to 250 μM) | M (moderate solubility if the threshold concentration is 31.3 μM to 250 μM) | < 0.1 | – | – | > 0.1 | >10 | – | – | > 10 | > 10 | > 10 |
